Results on twelve molecules are retold here after patent US11813306B2, “Cyclic tetramer compounds as proprotein convertase subtilisin/kexin type 9 (PCSK9) inhibitors for the treatment of metabolic disorders” (NOVARTIS AG, priority 2018, dated 2023).

Read-outs that look alike come from different tables or passages of the source.

The conditions of series [1]: DCM.
A further series has as its target human PCSK9 (Homo sapiens, UniProt Q8NBP7). Put plainly: PCSK9 ligand binding assay (TR-FRET): interference with binding of human PCSK9 to human LDLR. Conditions: for IC50: Human PCSK9 Alexa Fluor 647 / Human LDLR extracellular domain-Europium Kryptate; for Max % inhibition: efficacy (Amax), 100% = 1 uM unlabeled human PCSK9, 0% = DMSO. Summed up:
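Read-out was TR-FRET ratio (665 nm over 615 nm, 330 nm excitation) between Alexa Fluor 647-human PCSK9 (16 nM added) and Europium Kryptate-human LDLR ectodomain (4 nM added). Compound and PCSK9 were mixed 30 min before LDLR, then incubated 2 h. Inhibition was normalised to DMSO and unlabelled-PCSK9 controls, giving IC50 and Amax.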

By IC50 is commonly meant the point on the concentration scale where inhibition reaches its midpoint. Lower therefore signals inhibition by little substance.

Sequence of human PCSK9 (Q8NBP7 153-692): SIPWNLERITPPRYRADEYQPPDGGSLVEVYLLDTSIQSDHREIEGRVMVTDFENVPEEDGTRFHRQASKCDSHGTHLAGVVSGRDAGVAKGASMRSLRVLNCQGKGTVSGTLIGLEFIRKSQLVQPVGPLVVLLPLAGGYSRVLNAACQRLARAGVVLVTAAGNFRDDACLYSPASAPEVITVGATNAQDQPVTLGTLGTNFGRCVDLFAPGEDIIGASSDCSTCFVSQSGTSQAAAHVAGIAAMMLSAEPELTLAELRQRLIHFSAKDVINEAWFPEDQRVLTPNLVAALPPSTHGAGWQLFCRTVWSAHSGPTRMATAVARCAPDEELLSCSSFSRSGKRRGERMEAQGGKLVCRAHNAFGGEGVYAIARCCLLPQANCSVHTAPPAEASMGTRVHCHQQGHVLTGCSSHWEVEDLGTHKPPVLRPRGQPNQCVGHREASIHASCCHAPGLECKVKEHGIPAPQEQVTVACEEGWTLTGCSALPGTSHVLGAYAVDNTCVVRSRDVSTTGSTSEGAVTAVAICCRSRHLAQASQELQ
Sequence of human PCSK9 (Q8NBP7 31-152 partner limits assumed): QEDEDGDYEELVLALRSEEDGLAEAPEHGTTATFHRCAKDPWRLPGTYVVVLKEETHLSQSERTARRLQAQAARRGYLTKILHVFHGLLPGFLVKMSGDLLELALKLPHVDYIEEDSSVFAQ

`COC[C@@H]1NC(=O)[C@H](C)N(Cc2c(F)cc(Cl)cc2Oc2ccc(-c3cnc(CN(C(=O)OC(C)(C)C)C(C)(C)C)n3C)cc2)C(=O)C[C@@H](C2CC(F)(F)C2)C(=O)N2CCC[C@@](Cc3ccc(Cl)cc3)(C2)N(C)C1=O` gave a ring closure, yield of all isomers in series [1] (from COC[C@H](NC(=O)[C@H](C)NCc1c(F)cc(Cl)cc1Oc1ccc(-c2cnc(CN(C(=O)OC(C)(C)C)C(C)(C)C)n2C)cc1)C(=O)N(C)[C@@]1(Cc2ccc(Cl)cc2)CCCN(C(=O)[C@@H](CC(=O)O)C2CC(F)(F)C2)C1, amide bond, HATU, 1.82 mM, 42.0 °C) of 86%.
As to `C[C@H]1C(=O)N2[C@@H](COC2(C)C)C(=O)N[C@@]2(Cc3ccc(Cl)cc3)CCCN(C2)C(=O)[C@H](Cc2ccccc2)CC(=O)N1Cc1ccc(Cl)cc1Oc1ccc(-c2cnc(CN(C)C)n2C)cc1`, the ring closure, yield of all isomers in series [1] (from C[C@H](NCc1ccc(Cl)cc1Oc1ccc(-c2cnc(CN(C)C)n2C)cc1)C(=O)N1[C@H](C(=O)N[C@@]2(Cc3ccc(Cl)cc3)CCCN(C(=O)[C@@H](CC(=O)O)Cc3ccccc3)C2)COC1(C)C, amide bond, HATU, 1.04 mM, 45.0 °C) worked out at 69%.
In turn, `C[C@H]1C(=O)N[C@@H](CO)C(=O)N(C)[C@@]2(Cc3ccc(Cl)cc3)CCCN(C2)C(=O)[C@H](Cc2cccc[n+]2[O-])CC(=O)N1Cc1c(F)cc(Cl)cc1Oc1ccc(-c2cnc(CN(C)C)n2C)cc1` displayed a ring closure, yield of all isomers in series [1] (from C[C@H](NCc1c(F)cc(Cl)cc1Oc1ccc(-c2cnc(CN(C)C)n2C)cc1)C(=O)N[C@@H](CO)C(=O)N(C)[C@@]1(Cc2ccc(Cl)cc2)CCCN(C(=O)[C@@H](CC(=O)O)Cc2cccc[n+]2[O-])C1, amide bond, HATU/HOAt/2,6-lutidine, 1.08 mM, 48.0 °C, 4.0 h) of 98.8%.
`C[C@H]1C(=O)N[C@@H](CO)C(=O)N(C)[C@@]2(Cc3ccc(Cl)cc3)CCCN(C2)C(=O)[C@H](Cc2cccc[n+]2[O-])CC(=O)N1Cc1ccc(Cl)cc1Oc1ccc(-c2cnc(CN(C)C)n2C)cc1` had a ring closure, yield of all isomers in series [1] (from C[C@H](NCc1ccc(Cl)cc1Oc1ccc(-c2cnc(CN(C)C)n2C)cc1)C(=O)N[C@@H](CO)C(=O)N(C)[C@@]1(Cc2ccc(Cl)cc2)CCCN(C(=O)[C@@H](CC(=O)O)Cc2cccc[n+]2[O-])C1, amide bond, HATU, 0.83 mM, 48.0 °C, 4.0 h) of 100%.
On to `C[C@H]1C(=O)N[C@@H](CO)C(=O)N[C@@]2(Cc3ccc(Cl)cc3)CCCN(C2)C(=O)[C@H](Cc2cccc[n+]2[O-])CC(=O)N1Cc1ccc(Cl)cc1Oc1ccc(-c2cnc(CN3CCCC3)n2C)cc1`, for which the ring closure, yield of all isomers in series [1] (from C[C@H](NCc1ccc(Cl)cc1Oc1ccc(-c2cnc(CN3CCCC3)n2C)cc1)C(=O)N1[C@H](C(=O)N[C@@]2(Cc3ccc(Cl)cc3)CCCN(C(=O)[C@@H](CC(=O)O)Cc3cccc[n+]3[O-])C2)COC1(C)C, amide bond, HATU, 1.72 mM, 48.0 °C, 19.0 h, 2 steps) came out at 33.3%.
`COC[C@@H]1NC(=O)[C@H](C)N(Cc2c(F)cc(Cl)cc2Oc2ccc(-c3cnc(CN(C)C)n3C)cc2)C(=O)C[C@@H](Cc2cccc(C)n2)C(=O)N2CCC[C@@](Cc3ccc(Cl)cc3)(C2)N(C)C1=O` [Compound 13, (3R,7S,10S,13R)-6-(4-chloro-2-(4-(2-((dimethylamino)methyl)-1-methyl-1H-imidazol-5-yl)phenoxy)-6-fluorobenzyl)-13-(4-chlorobenzyl)-10-(methoxymethyl)-7,12-dimethyl-3-((6-methylpyridin-2-yl)methyl)-1,6,9,12-tetraazabicyclo[11.3.1]heptadecane-2,5,8,11-tetraone]: on human PCSK9, the IC50 worked out at 0.549 nM and the Max % inhibition turned out to be 112.1%. In series [1] (from COC[C@H](NC(=O)[C@H](C)NCc1c(F)cc(Cl)cc1Oc1ccc(-c2cnc(CN(C)C)n2C)cc1)C(=O)N(C)[C@@]1(Cc2ccc(Cl)cc2)CCCN(C(=O)[C@@H](CC(=O)O)Cc2cccc(C)n2)C1, amide bond, HATU/HOAt/2,6-lutidine, 1.59 mM, 48.0 °C, 16.0 h), this molecule returned a ring closure, yield of all isomers of 33%.
As to `C[C@H]1C(=O)N[C@@H](CO)C(=O)N[C@@]2(Cc3ccc(Cl)cc3)CCCN(C2)C(=O)[C@H](Cc2ccccc2)NC(=O)N1Cc1ccc(Cl)cc1Oc1ccc(-c2cnc(CN(C)C)n2C)cc1.Cl` [Compound 60, (3S,7S,10S,13R)-3-benzyl-6-(4-chloro-2-(4-(2-((dimethylamino)methyl)-1-methyl-1H-imidazol-5-yl)phenoxy)benzyl)-13-(4-chlorobenzyl)-10-(hydroxymethyl)-7-methyl-1,4,6,9,12-pentaaza-bicyclo[11.3.1]-heptadecane-2,5,8,11-tetraone hydrochloride], at human PCSK9, the IC50 came out at 0.476 nM and the Max % inhibition is on record as 106.6%. Also, the ring closure, yield of all isomers in series [1] (from C[C@@H](C(=O)N[C@@H](CO)C(=O)N[C@@]1(Cc2ccc(Cl)cc2)CCCNC1)N(Cc1ccc(Cl)cc1Oc1ccc(-c2cnc(CN(C)C)n2C)cc1)C(=O)N[C@@H](Cc1ccccc1)C(=O)O, amide bond, HATU/HOAt/2,6-lutidine, 1.0 mM, 25.0 °C, 2.5 h) came out at 55%.
Regarding `C[C@H]1C(=O)N[C@@H](CO)C(=O)N[C@@]2(Cc3ccc(Cl)cc3)CCCN(C2)C(=O)[C@H](Cc2ccccc2)OC(=O)N1Cc1ccc(Cl)cc1Oc1ccc(-c2cnc(CN(C)C)n2C)cc1.Cl` [Compound 78, (3S,7S,10S,13R)-3-benzyl-6-(4-chloro-2-(4-(2-((dimethylamino)methyl)-1-methyl-1H-imidazol-5-yl)phenoxy)benzyl)-13-(4-chlorobenzyl)-10-(hydroxymethyl)-7-methyl-4-oxa-1,6,9,12-tetraazabicyclo[11.3.1]heptadecane-2,5,8,11-tetraone hydrochloride], on human PCSK9, the IC50 came to 0.859 nM and the Max % inhibition is on record as 99.2%. In series [1] (from C[C@@H](C(=O)N[C@@H](CO)C(=O)N[C@@]1(Cc2ccc(Cl)cc2)CCCNC1)N(Cc1ccc(Cl)cc1Oc1ccc(-c2cnc(CN(C)C)n2C)cc1)C(=O)O[C@@H](Cc1ccccc1)C(=O)O, amide bond, HATU/HOAt, 2,6-lutidine, 1.0 mM, 25.0 °C, 2.25 h, 2 steps), the ring closure, yield of all isomers came out at 38%.
In the case of `C[C@H]1C(=O)N[C@@H](CO)C(=O)N(C)[C@H](Cc2ccc(Cl)cc2)CN(C)C(=O)[C@H]([C@H]2CCc3ccccc32)CC(=O)N1Cc1ccc(Cl)cc1Oc1ccc(-c2cnc(CN3CCCC3)n2C)cc1.Cl` [Compound 86, (2S,5S,8R,12S)-1-(4-chloro-2-(4-(1-methyl-2-(pyrrolidin-1-ylmethyl)-1H-imidazol-5-yl)phenoxy)-benzyl)-8-(4-chlorobenzyl)-12-((R)-2,3-dihydro-1H-inden-1-yl)-5-(hydroxymethyl)-2,7,10-trimethyl-1,4,7,10-tetraazacyclotetradecane-3,6,11,14-tetraone hydrochloride], at human PCSK9, the half-inhibitory concentration (IC50) came to 0.941 nM and the Max % inhibition was found to be 99.4%. The same molecule returned a ring closure, yield of all isomers in series [1] (from C[C@H](NCc1ccc(Cl)cc1Oc1ccc(-c2cnc(CN3CCCC3)n2C)cc1)C(=O)N[C@@H](COC(C)(C)C)C(=O)N(C)[C@H](Cc1ccc(Cl)cc1)CN(C)C(=O)[C@@H](CC(=O)O)[C@H]1CCc2ccccc21, amide bond, HATU, 1.0 mM, 40.0 °C, 29.0 h, 2 steps) of 45%.
Turning to `COC[C@@H]1NC(=O)[C@H](C)N(Cc2ccc(Cl)cc2Oc2ccc(-c3cnc(CN4CCCC4)n3C)cc2)C(=O)C[C@@H]([C@H]2CCc3ccccc32)C(=O)N2CCC[C@@](Cc3ccc(Cl)cc3)(C2)NC1=O.O=C(O)C(F)(F)F` [Compound 96, (3S,7S,10S,13R)-6-(4-chloro-2-(4-(1-methyl-2-(pyrrolidin-1-ylmethyl)-1H-imidazol-5-yl)phenoxy)benzyl)-13-(4-chlorobenzyl)-3-((R)-2,3-dihydro-1H-inden-1-yl)-10-(methoxymethyl)-7-methyl-1,6,9,12-tetraazabicyclo[11.3.1]heptadecane-2,5,8,11-tetraone trifluoroacetate], on human PCSK9, the IC50 was 2.21 nM and the Max % inhibition came to 96.3%. This molecule also showed a ring closure, yield of all isomers in series [1] (from COC[C@H](NC(=O)[C@H](C)NCc1ccc(Cl)cc1Oc1ccc(-c2cnc(CN3CCCC3)n2C)cc1)C(=O)N[C@@]1(Cc2ccc(Cl)cc2)CCCN(C(=O)[C@@H](CC(=O)O)[C@H]2CCc3ccccc32)C1, amide bond, HATU/HOAt/2,6-lutidine, 1.04 mM, 40.0 °C, 17.0 h) of 46%.
In the case of `COC[C@@H]1NC(=O)[C@H](C)N(Cc2ccc(Cl)cc2Oc2ccc(-c3cnc(CN(C)C)n3C)cc2)CC[C@@H](Cc2ccccc2)C(=O)N2CCC[C@@](Cc3ccc(Cl)cc3)(C2)NC1=O.O=C(O)C(F)(F)F` [Compound 120, (3R,7S,10S,13R)-3-benzyl-6-(4-chloro-2-(4-(2-((dimethylamino)methyl)-1-methyl-1H-imidazol-5-yl)phenoxy)benzyl)-13-(4-chlorobenzyl)-10-(methoxymethyl)-7-methyl-1,6,9,12-tetraazabicyclo[11.3.1]heptadecane-2,8,11-trione trifluoroacetate], at human PCSK9, the IC50 worked out at 61.2 nM and the Max % inhibition was found to be 102.4%. For the same molecule, in series [1] (from COC[C@H](NC(=O)[C@H](C)N)C(=O)N[C@@]1(Cc2ccc(Cl)cc2)CCCN(C(=O)[C@@H](CC=O)Cc2ccccc2)C1, amine bond, NaBH(OAc)3/AcOH, 10.0 mM, 25.0 °C, 2.5 h, 4 steps), the ring closure, yield of all isomers amounted to 0.6%.
In the case of `CN(C)Cc1ncc(-c2ccc(Oc3cc(Cl)ccc3CN3C(=O)C[C@@H](Cc4ccccc4)C(=O)N4CCC[C@@](Cc5ccc(Cl)cc5)(C4)NC(=O)[C@H](CO)NC(=O)[C@@H]3CCN)cc2)n1C` [Compound 178, (3R,7S,10S,13R)-7-(2-aminoethyl)-3-benzyl-6-(4-chloro-2-(4-(2-((dimethylamino)methyl)-1-methyl-1H-imidazol-5-yl)phenoxy)benzyl)-13-(4-chlorobenzyl)-10-(hydroxymethyl)-1,6,9,12-tetraazabicyclo[11.3.1]heptadecane-2,5,8,11-tetraone], at human PCSK9, the IC50 came to 2.66 nM and the Max % inhibition amounted to 104.3%.
